# Legend:
# Covid-19 [1] = details: cited from earlier work
# ACE2 receptor = ACE2 receptor (Homo sapiens, UniProt Q9BYF1); details: active site of ACE2 receptor; cited from earlier work
# PASC (Long Covid) = experiment: Clinical example: inventor's self-treatment of Long Covid (PASC) symptoms; format: in vivo, human; details: for relief of constant headache: person, symptoms returning from mid-December 2020 after Covid, self-medication
# Covid-19 [2] = details: cited from earlier work; remark: listed apart in the source
# Chain of ACE2 receptor (Q9BYF1 18-805): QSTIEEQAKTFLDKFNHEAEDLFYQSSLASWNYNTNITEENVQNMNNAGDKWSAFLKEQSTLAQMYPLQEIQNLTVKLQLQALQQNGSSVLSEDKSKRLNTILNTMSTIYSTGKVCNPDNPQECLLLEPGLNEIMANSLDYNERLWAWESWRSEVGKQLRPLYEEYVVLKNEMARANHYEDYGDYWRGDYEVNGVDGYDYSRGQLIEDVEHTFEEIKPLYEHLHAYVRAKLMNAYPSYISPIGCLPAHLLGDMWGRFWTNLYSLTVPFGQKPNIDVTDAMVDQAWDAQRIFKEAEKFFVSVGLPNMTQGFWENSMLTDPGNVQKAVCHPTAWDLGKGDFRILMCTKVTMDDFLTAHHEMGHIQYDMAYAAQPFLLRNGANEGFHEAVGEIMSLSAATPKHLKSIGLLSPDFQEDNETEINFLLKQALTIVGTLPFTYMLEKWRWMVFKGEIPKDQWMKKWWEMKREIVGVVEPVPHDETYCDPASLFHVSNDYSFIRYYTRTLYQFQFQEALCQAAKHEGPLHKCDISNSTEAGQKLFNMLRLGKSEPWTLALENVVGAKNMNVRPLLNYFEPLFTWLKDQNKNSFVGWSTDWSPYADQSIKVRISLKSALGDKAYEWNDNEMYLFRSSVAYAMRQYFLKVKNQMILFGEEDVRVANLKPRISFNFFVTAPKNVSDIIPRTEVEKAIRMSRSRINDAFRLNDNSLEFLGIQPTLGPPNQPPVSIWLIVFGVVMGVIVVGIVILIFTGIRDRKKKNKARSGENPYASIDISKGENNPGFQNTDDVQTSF
structure (smiles),measurement,setting,value
O=C(O)c1ccccc1 [Benzioc Acid],antiviral properties for Covid-19,Covid-19 [1],strong antiviral properties
O=C(O)C=Cc1ccccc1 [Cinnamic Acid],blocking of Covid-19 via ACE2 receptor,ACE2 receptor,block Covid-19 via the active site of ACE2 receptor
O=c1c(O)c(-c2ccc(O)c(O)c2)oc2cc(O)cc(O)c12 [Quercetin],energy and headaches,"PASC (Long Covid); Black Seed Oil and Quercetin (with Zinc) used together, within a few days of using them",an increase in energy and I was having fewer headaches
C=C1CC[C@@H]2[C@](C)(CO)[C@H](O)CC[C@@]2(C)[C@@H]1C/C=C1/C(=O)OC[C@H]1O [andrographolide],inhibitory effect against Covid-19,Covid-19 [2],potent inhibitory effect
CC(=O)Oc1ccccc1C(=O)O [aspirin],relief of constant headache,PASC (Long Covid),would not go away
CC(C)Cc1ccc(C(C)C(=O)O)cc1 (stereo not shown) [ibuprofen],relief of constant headache,PASC (Long Covid),would not go away
COc1ccc2cc([C@H](C)C(=O)O)ccc2c1 [naproxen],relief of constant headache,PASC (Long Covid),would not go away

# Reference: US20260151414A1, “COMPOSITIONS AND THERAPEUTIC METHODS FOR TREATING CHRONIC SEQUALAE FOLLOWING VIRAL INFECTIONS” (priority 2023, published 2026)
